Data as given in article PMC6368574, “Probing the Inhibition of Microtubule Affinity Regulating Kinase 4 by N-Substituted Acridones” (Scientific Reports, 2019).
Like-named read-outs stand apart in the source and are kept apart here.

What was measured:
MCF-7 cells = test: MTT cell viability assay, MCF-7; assay type: cell-based; settings: Homo sapiens, MCF7
Method: (§1) Initially, all synthesized acridone derivatives were evaluated for their cytotoxicity potential on MCF-7, HepG2 and HEK293 cell lines by MTT assay. These synthesized acridone derivatives were screened in the concentration range of 0–200 µM, for 24 and 48 h. […] It was also interesting that in the studied […] concentration range these compounds don’t show considerable cytotoxicity towards HEK293 cell lines. […] Thus, compounds 5, 7b, 7d, 7f and 7h were taken for further cell based studies such as apoptosis and reactive oxygen species (ROS) production.
(§2) To study the effect of synthesized acridone derivatives on cell viability and proliferation, a standard MTT method was carried out. Cells were plated (8000–9000/well) in a 96-well plate and incubated overnight. On the next day, cells were treated with increasing concentrations (0.1–80 μM) of synthesized acridone derivatives in a final volume of 200 µl for 48 h at 37 °C in a humidified chamber. At the end of treatment time point, 20 µl of MTT solution (from 5 mg/ml stock solution in phosphate buffer saline, pH 7.4) was added to each well and incubated further for 4–5 h at 37 °C in the CO2 incubator. After stipulated time the supernatant was aspirated and the colored formazan crystal produced as a result of MTT reduction was dissolved in 100 µl of DMSO. The absorbance (A) of colored product was then measured at 570 nm on a multiplate ELISA reader (BioRad). The percentage of viable cells was calculated and used to estimate the IC50 (50% inhibitory concentration) values for each acridone derivative. For cell proliferation studies paclitaxel has been taken as positive control.

HepG2 cells = test: MTT cell viability assay, HepG2; assay type: cell-based; settings: Homo sapiens, Table S2
Method: as §1, §2

recombinant MARK4 = biological target: T1, recombinant MARK4 (Homo sapiens, UniProt Q96L34); test: Isothermal titration calorimetry; assay type: binding; settings: for ITC binding in words: at lower stoichiometry, at high concentration they precipitate with MARK4; for Kd: read-out: Ka (converted)
T1 construct: made in house; host or cells: bacterial cells (Luria-Bertani broth, IPTG induction)
T1 sequence (Q96L34 1-752): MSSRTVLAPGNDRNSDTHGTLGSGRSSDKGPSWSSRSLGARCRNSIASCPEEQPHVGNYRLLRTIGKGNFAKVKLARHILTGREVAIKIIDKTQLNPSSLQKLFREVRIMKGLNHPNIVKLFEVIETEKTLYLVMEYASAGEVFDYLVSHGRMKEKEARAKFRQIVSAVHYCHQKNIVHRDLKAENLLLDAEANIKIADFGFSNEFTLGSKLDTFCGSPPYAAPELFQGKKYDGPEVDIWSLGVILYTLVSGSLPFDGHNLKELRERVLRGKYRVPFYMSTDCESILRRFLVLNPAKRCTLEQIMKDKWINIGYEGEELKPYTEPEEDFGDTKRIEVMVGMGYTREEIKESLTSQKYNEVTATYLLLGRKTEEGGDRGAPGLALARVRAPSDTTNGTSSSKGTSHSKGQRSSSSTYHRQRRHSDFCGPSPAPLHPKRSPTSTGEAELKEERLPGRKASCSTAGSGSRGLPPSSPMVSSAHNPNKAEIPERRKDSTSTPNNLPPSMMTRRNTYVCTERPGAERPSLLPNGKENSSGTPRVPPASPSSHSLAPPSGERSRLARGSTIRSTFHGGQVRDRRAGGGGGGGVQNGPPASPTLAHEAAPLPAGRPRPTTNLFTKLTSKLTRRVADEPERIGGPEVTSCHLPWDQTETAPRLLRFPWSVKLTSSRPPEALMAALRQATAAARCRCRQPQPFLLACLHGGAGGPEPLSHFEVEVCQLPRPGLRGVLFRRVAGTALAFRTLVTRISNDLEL
From the text: In order to measure the actual binding affinity and stoichiometry of selected compounds with the recombinant MARK4, isothermal titration calorimetry (ITC) has been carried out. Negative heat impulses in the upper panel of each isotherm indicate exothermic nature of binding. The amount of heat produced as a result of each injection helps to deliver the molar ratio of studied compound to that of MARK4. Thermodynamic parameters associated with binding of MARK4-compounds (Ka, binding constant and ΔH, enthalpy change) are shown in Table 1.
Figure 5 ITC measurement showing the titration of selected acridone derivatives with recombinant MARK4. (Top) Raw data plot of heat produced against time for the titration of 1000–1500 µM (A) compound 7b, (B) compound 7d, (C) compound 7f, into 20–25 µM MARK4. (Bottom) Corresponding binding isotherm obtained after integration of peak area and normalization to yield a plot of molar enthalpy change against each compound-MARK4 ratio.
ITC experiments were performed on a VP-ITC microcalorimeter (MicroCal, Inc. GE, MicroCal, USA) by following our previously published protocols[41],[47]. For sample preparation, recombinant MARK4 was extensively dialyzed in 20 mM Tris buffer, pH 8.5 and the working solutions of acridone derivatives were prepared in last dialyzing buffer. The titration data so obtained was analyzed with the help of MicroCal Origin 7.0 software provided with the instrument. The thermodynamic parameters of binding such as association constant (Ka), stoichiometry of binding (n), and enthalpy change (ΔH) were determined by fitting the binding isotherm into the ‘one-set of sites’ binding model.

[1] = MTT, read-out: IC50 for MCF-7 cells
[2] = Table 1, from MTT, read-out: IC50, (µM), MCF-7

IC50 (MCF-7 cells; [1]) [µM] | IC50 (HepG2 cells) [µM] | ITC binding in words (recombinant MARK4) | IC50 (MCF-7 cells; [2]) [µM] | Kd (recombinant MARK4; from ITC, single-site fitting) [µM] | ΔH (recombinant MARK4; from ITC, single-site fitting) | SMILES
– | 15.2 | – | 5.8 ± 1.4 | 7.41 | −3.01 × 10^4 ± 590.10 cal/mol | Cc1ccc(NC(=O)Cn2c3ccccc3c(=O)c3cc(C)ccc32)cc1 [Compound 7f, 2-(2-Methyl-9-oxoacridin-10(9H)-yl)-N-(p-tolyl)acetamide]
7.2 ± 1.33 | 19 | do not show significant binding | – | – | – | COc1ccccc1NC(=O)Cn1c2ccccc2c(=O)c2cc(C)ccc21 [Compound 7h, N-(2-methoxyphenyl)-2-(2-methyl-9-oxoacridin-10(9H)-yl)acetamide]

The remaining lines, values behind:

SMILES | IC50 (MCF-7 cells; [1]) [µM] | IC50 (HepG2 cells) [µM] | ITC binding in words (recombinant MARK4) | IC50 (MCF-7 cells; [2]) [µM] | Kd (recombinant MARK4; from ITC, single-site fitting) [µM] | ΔH (recombinant MARK4; from ITC, single-site fitting)
COC(=O)Cn1c2ccccc2c(=O)c2cc(C)ccc21 [Compound 5, Methyl 2-(2-methyl-9-oxoacridin-10(9H)-yl)acetate] | 9.4 ± 1 | 16.4 | do not show significant binding | – | – | –
Cc1ccc2c(c1)c(=O)c1ccccc1n2CC(=O)NCc1ccccc1 [Compound 7b, N-benzyl-2-(2-methyl-9-oxoacridin-10(9H)-yl)acetamide] | – | 13.6 | – | 5.2 ± 1.2 | 15.6 | –
COc1ccc(CNC(=O)Cn2c3ccccc3c(=O)c3cc(C)ccc32)cc1 [Compound 7d, N-(4-methoxybenzyl)-2-(2-methyl-9-oxoacridin-10(9H)-yl)acetamide] | – | 15.1 | – | 6.3 ± 1.2 | 15.8 | –
